Data reported in US7807686B2, “2-(4-oxo-4H-quinazolin-3-yl)acetamides and their use as vasopressin V3 antagonists” (N.V. Organon, priority 2005, dated 2010).
Structures can show the parent of a compound that is named as a salt.

Molecular target: T1, human V3 receptor (Homo sapiens, UniProt P47901)
T1 construct: expressed in transfected cells
T1 sequence (P47901 1-424): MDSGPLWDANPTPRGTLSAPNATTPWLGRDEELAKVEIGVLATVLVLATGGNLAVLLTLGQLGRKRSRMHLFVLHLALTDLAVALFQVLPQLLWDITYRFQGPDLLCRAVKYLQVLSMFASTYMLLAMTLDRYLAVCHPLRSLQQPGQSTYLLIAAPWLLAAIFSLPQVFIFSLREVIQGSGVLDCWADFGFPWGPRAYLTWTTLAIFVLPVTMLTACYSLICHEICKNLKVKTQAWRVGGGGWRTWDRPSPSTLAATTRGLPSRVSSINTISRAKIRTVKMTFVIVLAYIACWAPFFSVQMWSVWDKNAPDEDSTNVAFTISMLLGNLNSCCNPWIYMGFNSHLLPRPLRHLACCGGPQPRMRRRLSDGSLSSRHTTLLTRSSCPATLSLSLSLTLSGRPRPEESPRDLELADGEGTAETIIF
Test: [3H]AVP binding to CHO cells stably expressing the human V3 receptor
Details: Ki from displacement of [3H]AVP (2.5×10^-9 mol.L^-1)
Experimental: Chinese Hamster Ovary (CHO) cells stably expressing the human V3 receptor were incubated to equilibrium with the test compound (at a final assay concentration of 10^−11 mol.L^−1 to 10^−5 mol.L^−1) and [^3H]AVP (at a final assay concentration of 2.5×10^−9 mol.L^−1). […] After washing with ice-cold phosphate buffered saline (PBS), scintillation fluid was added and the plates counted on a Topcount NXT apparatus.
A sigmoidal dose response curve (non-linear regression, variable slope) was plotted as concentration of test compound (mol.L^−1) against percentage specific binding of [^3H]AVP and a Ki value was calculated. Each determination was carried out in triplicate and repeated on at least 3 separate occasions

Row | Structure (SMILES) | Ki [nM]
1 | CC(C)NC(=O)Cn1c(-c2cc(F)c(F)c(F)c2)nc2ccc(OCCCN3CCCCC3)cc2c1=O [EXAMPLE 1f, N-Isopropyl-2-[4-oxo-6-(3-piperidin-1-ylpropoxy)-2-(3,4,5-trifluorophenyl)-4H-quinazolin-3-yl]acetamide] | 10 to 100
2 | COc1cccc(-c2nc3ccc(OCCCN4CCCCC4)cc3c(=O)n2CC(=O)NC(C)C)n1 [EXAMPLE 1h, N-Isopropyl-2-[2-(6-methoxypyridin-2-yl)-4-oxo-6-(3-piperidin-1-ylpropoxy)-4H-quinazolin-3-yl]acetamide] | < 10
3 | CC(C)(C)NC(=O)Cn1c(-c2cccc(Cl)c2)nc2ccc(OCCCN3CCCCC3)cc2c1=O [EXAMPLE 2f, N-tert-Butyl-2-[2-(3-chlorophenyl)-4-oxo-6-(3-piperidin-1-ylpropoxy)-4H-quinazolin-3-yl]acetamide] | < 10
4 | COc1cc(-c2nc3ccc(OCCCN4CCC(O)CC4)cc3c(=O)n2CC(=O)NC(C)C)ccc1F [EXAMPLE 2p, 2-{2-(4-Fluoro-3-methoxyphenyl)-6-[3-(4-hydroxypiperidin-1-yl)propoxy]-4-oxo-4H-quinazolin-3-yl}-N-isopropylacetamide] | < 10
5 | COc1cccc(-c2nc3cc(C)c(OCCCN4CCCCC4)cc3c(=O)n2CC(=O)NC(C)C)c1 [EXAMPLE 2w, N-Isopropyl-2-[2-(3-methoxyphenyl)-7-methyl-4-oxo-6-(3-piperidin-1-ylpropoxy)-4H-quinazolin-3-yl]acetamide] | < 10
6 | CC(C)NC(=O)Cn1c(-c2cccc(Cl)c2)nc2ccc(OCCCN3CCCCC3)cc2c1=O [EXAMPLE 3a, 2-[2-(3-Chlorophenyl)-4-oxo-6-(3-piperidin-1-ylpropoxy)-4H-quinazolin-3-yl]-N-isopropylacetamide hydrochloride] | < 10
7 | COc1cc(OC)cc(-c2nc3ccc(OCCCN4CCOCC4)cc3c(=O)n2CC(=O)NCC2CC2)c1 [EXAMPLE 3k, N-Cyclopropylmethyl-2-[2-(3,5-dimethoxyphenyl)-6-(3-morpholin-4-ylpropoxy)-4-oxo-4H-quinazolin-3-yl]acetamide] | < 10
8 | COc1ccc(CN(CCCN2CCCCC2)c2ccc3nc(-c4cccc(OC)c4)n(CC(=O)NC(C)C)c(=O)c3c2)cc1 [EXAMPLE 3r, N-Isopropyl-2-[6-[(4-methoxybenzyl)-(3-piperidin-1-ylpropyl)amino]-2-(3-methoxyphenyl)-4-oxo-4H-quinazolin-3-yl]acetamide] | 10 to 100
9 | COc1cccc(-c2nc3ccc(SCCCN4CCCCC4)cc3c(=O)n2CC(=O)NC(C)C)c1 [EXAMPLE 3t, N-Isopropyl-2-[2-(3-methoxyphenyl)-4-oxo-6-(3-piperidin-1-ylpropylsulfanyl)-4H-quinazolin-3-yl]acetamide] | 10 to 100
10 | CC(C)NC(=O)Cn1c(-c2cccc(F)c2)nc2ccc(OC[C@@H](C)CN3CCOCC3)cc2c1=O [EXAMPLE 4g, (S)-(+)-2-[2-(3-Fluorophenyl)-6-(2-methyl-3-morpholin-4-ylpropoxy)-4-oxo-4H-quinazolin-3-yl]-N-isopropylacetamide] | < 10
11 | COc1cccc(-c2nc3ccc(OC[C@@H](C)CN4CCC4)cc3c(=O)n2CC(=O)NC(C)C)c1 [EXAMPLE 4i, (S)-(+)-2-[6-(3-Azetidin-1-yl-2-methylpropoxy)-2-(3-methoxyphenyl)-4-oxo-4H-quinazolin-3-yl]-N-isopropylacetamide] | 10 to 100
12 | CCCNC(=O)Cn1c(-c2cccc(OC)c2)nc2ccc(OC[C@@H](C)CN3CCCCC3)cc2c1=O [EXAMPLE 4n, (S)-(+)-2-[2-(3-Methoxyphenyl)-6-(2-methyl-3-piperidin-1-ylpropoxy)-4-oxo-4H-quinazolin-3-yl]-N-propylacetamide] | < 10
13 | O=C(Cn1c(-c2ccccc2)nc2ccc(OCCCN3CCCCCC3)cc2c1=O)NCC1CC1 [EXAMPLE 4q, 2-[6-(3-Azepan-1-ylpropoxy)-4-oxo-2-phenyl-4H-quinazolin-3-yl]-N-cyclopropylmethylacetamide] | 100 to 1000
14 | COc1cccc(-c2nc3ccc(-c4cc(CN(C)C)ccc4F)cc3c(=O)n2CC(=O)NC(C)C)c1 [EXAMPLE 6a, 2-[6-(5-Dimethylaminomethyl-2-fluorophenyl)-2-(3-methoxyphenyl)-4-oxo-4H-quinazolin-3-yl]-N-isopropylacetamide] | < 10
15 | COc1cccc(-c2nc3ccc(-c4cccc(CN(C)C)n4)cc3c(=O)n2CC(=O)NC(C)C)c1 [EXAMPLE 6b, 2-[6-(6-Dimethylaminomethylpyridin-2-yl)-2-(3-methoxyphenyl)-4-oxo-4H-quinazolin-3-yl]-N-isopropylacetamide] | 10 to 100
16 | COc1cccc(-c2nc3ccc(-c4cccc(CN(C)CC(C)C)c4)cc3c(=O)n2CC(=O)NC(C)C)c1 [EXAMPLE 7p, 2-[6-{3-[(Isobutylmethylamino)methyl]phenyl}-2-(3-methoxyphenyl)-4-oxo-4H-quinazolin-3-yl]-N-isopropylacetamide] | 10 to 100
17 | COc1cccc(-c2nc3ccc(-c4cccc(CN5CCOCC5)c4)cc3c(=O)n2CC(=O)NC(C)C)c1 [EXAMPLE 7u, N-Isopropyl-2-[2-(3-methoxyphenyl)-6-(3-morpholin-4-ylmethylphenyl)-4-oxo-4H-quinazolin-3-yl]acetamide] | < 10
18 | C=CCNC(=O)Cn1c(-c2ccccc2)nc2ccc(-c3cccc(CN4CCCCC4)c3)cc2c1=O [EXAMPLE 7x, N-Allyl-2-[4-oxo-2-phenyl-6-(3-piperidin-1-ylmethylphenyl)-4H-quinazolin-3-yl]acetamide] | 100 to 1000
19 | COc1cccc(-c2nc3ccc(-c4ccc(CN5CCC5)o4)cc3c(=O)n2CC(=O)NC(C)C)c1 [EXAMPLE 9a, 2-[6-(5-Azetidin-1-ylmethylfuran-2-yl)-2-(3-methoxyphenyl)-4-oxo-4H-quinazolin-3-yl]-N-isopropylacetamide] | 10 to 100
20 | COc1cccc(-c2nc3ccc(/C=C/CCN4CCOCC4)cc3c(=O)n2CC(=O)NC(C)C)c1 [EXAMPLE 10b, N-Isopropyl-2-[2-(3-methoxyphenyl)-6-(4-morpholin-4-ylbut-1-enyl)-4-oxo-4H-quinazolin-3-yl]acetamide] | 10 to 100
21 | COc1cccc(-c2nc3ccc(CCCCN4CCCC4)cc3c(=O)n2CC(=O)NC(C)C)c1 [EXAMPLE 11b, N-Isopropyl-2-[2-(3-methoxyphenyl)-4-oxo-6-(4-pyrrolidin-1-ylbutyl)-4H-quinazolin-3-yl]acetamide] | 10 to 100
22 | COc1cccc(-c2nc3ccc(OCCC4CCCCN4C)cc3c(=O)n2CC(=O)NC(C)C)c1 (stereo not drawn) [EXAMPLE 12a, N-Isopropyl-2-[2-(3-methoxyphenyl)-6-[2-(1-methylpiperidin-2-yl)ethoxy]-4-oxo-4H-quinazolin-3-yl]acetamide] | 100 to 1000
23 | COc1cccc(-c2nc3ccc(NCCCN4CCCCC4)cc3c(=O)n2CC(=O)NC(C)C)c1 [EXAMPLE 13a, N-Isopropyl-2-[2-(3-methoxyphenyl)-4-oxo-6-(3-piperidin-1-ylpropylamino)-4H-quinazolin-3-yl]acetamide] | 100 to 1000
24 | COc1cccc(-c2nc3ccc(OCC4CCCN(C)C4)cc3c(=O)n2CC(=O)NC(C)C)c1 (stereo not drawn) [EXAMPLE 14a, N-Isopropyl-2-[2-(3-methoxyphenyl)-6-(1-methylpiperidin-3-ylmethoxy)-4-oxo-4H-quinazolin-3-yl]acetamide] | 100 to 1000
